Assay results published in patent publication US20110212040A1, “STABILIZED SUNSCREEN COMPOSITIONS” (priority 2010, published 2011).
Entries after “also recorded” stand apart in the source; their conditions may differ.

What was measured:
Format in all cases: physicochemical
[1] = Stabilization of avobenzone in presence of single carotenoids; settings: for protective activity vs avobenzone degradation: lycopene 1.6 mg/mL in squalane
Protocol: (§1) Key elements for this test are: consistent irradiation (known and consistent light source and positioning of samples with respect to the light source); optimal exposure of the sample to UV light (thin but consistent layer sample, in a flat vessel with no high walls which could screen out UV light); consistent sampling (especially recovery of irradiated material for analysis). Under the instant method, irradiation takes place in the Innova 4340 incubator, fitted with UV tubes (UVC: Osram Puritec-HNS3OVG13-G30T8/OF; UVB: Voltarc E312/F30T8; UVA: Sylvania F30T8/350BL)—allowing for intense, known, reproducible and even irradiation (a known illuminant is the single source of light—a wide light source and the incubator's metallic walls also help achieve even illumination). Samples are exposed in Brand plastic vial caps made of polyethylene, 26 mm diameter, 5 mm wall height, 400 μL sample volume, in triplicates, generally introduced as solutions in suitable oil carriers)—enabling irradiation of a relatively even and thin layer while allowing consistent sample recovery.
Analysis of the avobenzone content of the samples was done by UV spectroscopy (absorption @ 350 nm for avobenzone; sample dilution ×400 in hexanes). As phytofluene absorbs in the UV range relevant to our measure of avobenzone, blank TCLC samples (i.e. without avobenzone) were irradiated in parallel with test samples and absorption @ 350 nm was measured before and after irradiation. This absorption was deducted from the avobenzone absorption data, producing the corrected data shown here (unless noted otherwise).
Based on the above results, degradation of avobenzone was next measured in the presence of single carotenoids, specifically: phytoene (PE), phytofluene (PF), zeta-carotene (ZC) and Lycopene (LY).
Carotenoids levels: for the purposes of these experiments, phytoene was tested at 1.3 mg/mL; phytofluene was tested at 0.3 mg/mL; zeta-carotene and lycopene were tested at 1.6 mg/mL.
Irradiation was carried out with combined UVA+UVB (4:2, 18 h) and UVA+UVB+UVC (3:2:1, 10 h).

[2] = Effect of phytoene/phytofluene levels and ratio variations on avobenzone stabilization; settings: combined UVA+UVB+UVC 10 h; low 0.3 mg/mL, high 1.3 mg/mL; listed as PE
Protocol: as §1, with “Samples are exposed in Brand plastic vial caps made of polyethylene, 26 mm diameter, 5 mm wall height, 400 μL sample volume, in triplicates, generally introduced as solutions in suitable oil carriers)—enabling irradiation of a relatively even and thin layer while allowing consistent sample recovery.” left out
Analysis of the avobenzone content of the samples was done by UV spectroscopy (absorption @ 350 nm for avobenzone; sample dilution ×400 in hexanes). As phytofluene absorbs in the UV range relevant to our measure of avobenzone, blank TCLC samples (i.e. without avobenzone) were irradiated in parallel with test samples and absorption @ 350 nm was measured before and after irradiation. […]

[3] = UV absorbance spectra / absorption maximum; settings: FIG. 10
[4] = 3% avobenzone cream, in vitro SPF/UVA-PF and photo stability (Colipa 2009); settings: UVA dose 10 J/cm^2, Suntest
Protocol: Following the convincing results from the studies described above, a preliminary study with a basic cream containing 3% avobenzone labelled 703-1, to which phytoene and phytofluene (0.0075%), was added and labelled 703-2, was conducted to determine the contribution of phytofluene to sun protection and photo stability of avobenzone under UVA following the Colipa 2009 in vitro Standard Guidelines. Approximately 1.7 mg/cm^2 of each composition is applied to 5 PMMA plates (Helioplates-HD-6, Helioscreen®, Source: Labsphere, North Sutton, N.H.), respectively, and allowed to equilibrate for at least 15 minutes. Absorbance spectra from 5 locations on each plate are measured using a UV2000 Sunscreen Analyzer (Labsphere, North Sutton, N.H.). […] Plate temperatures are 25-35° C. Mean UVA protection factors at each UV dose are then computed for each test product, using Colipa UVA Protection Factor Test Method Spreadsheet, and mean absorbance spectra from 290 to 400 nm is obtained.

In the case of CC(C)=CCC/C(C)=C/C=C/C(C)=C/C=C/C(C)=C/C=C/C=C(C)/C=C/C=C(C)/C=C/C=C(\C)CCC=C(C)C [Lycopene], the “protective activity vs avobenzone degradation” value ([1]; combined UVA+UVB 4:2, 18 h) is reported as “slight protective activity” and the “protective activity vs avobenzone degradation” value ([1]; combined UVA+UVB+UVC 3:2:1, 10 h) is reported as “no significant activity”.
With CC(C)=CCC/C(C)=C/CC/C(C)=C/CC/C(C)=C/C=C/C=C(\C)CC/C=C(\C)CC/C=C(\C)CCC=C(C)C [phytoene] the “protective activity vs degradation of avobenzone” value [2] was “level-dependent; also recorded: roughly comparable activities” and the “λmax of absorbance spectra” value [3] was 286 nm.
With CC(C)=CCC/C(C)=C/CC/C(C)=C/C=C/C(C)=C/C=C/C=C(\C)CC/C=C(\C)CC/C=C(\C)CCC=C(C)C [phytofluene] the “boost to UVA-PF” value [4] was “addition to UVA-Pf” and the “λmax of absorbance spectra” value [3] was 348 nm.
In the case of CC(C)=CCC/C(C)=C/CC/C(C)=C/C=C/C(C)=C/C=C/C=C(C)/C=C/C=C(\C)CC/C=C(\C)CCC=C(C)C [Zeta-carotene, zeta-carotene], the “stabilizing / protective effect on avobenzone” value ([1]; UVA+UVB (18 h) and UVA+UVB+UVC (10 h), not distinguished, phytoene 1.3, phytofluene 0.3, zeta-carotene 1.6 mg/mL) is reported as “some protective activity”.
